Test results from patent US5614548A, “Quaternary amine containing ether or ester lipid derivatives and therapeutic compositions” (priority 1994, dated 1997).

Columns and labels:
[1] = test system: KB cells; assay: Synergism with vincristine on KB cell number; assay type: cell-based, human
Experimental: (§1) All cells were grown in Eagle's minimum essential medium supplemented with 10% fetal bovine serum with the exception of HL-60 and K562-4 cells which were grown in RPMI 1640 medium supplemented with 10% fetal bovine serum. The KB and MH1 C1 cells, from a human nasopharyngeal carcinoma and rat hepatoma, respectively, were from American Type Culture Collection. The ChaGo cells, a human lung carcinoma, was generously provided by Dr. A. H. Tashjian. The human promyeloblastic leukemia cells, K562-4 were kindly supplied by Dr. Bismarck Lozzio. HL-60 cells, a human promyelocytic leukemia, and P388 cells, a mouse leukemia, were obtained from Dr. Y.-C. Cheng. The 77 cells were put into culture by us by excising the 7777, Morris hepatoma from a rat graciously supplied by the late Dr. H. P. Morris.
(§2) Cells were transferred or removed from monolayers for counting after a one or two minute incubation with 0.02% sodium ethylenediamine tetraacetate in phosphate-buffered saline to dislodge the cells. Flasks were seeded at a density of 1×10^3 cells per cm^2 or 2×10^4 per milliliter for suspension cultures. The HL-60 and K562-4 suspension cultures were used about 24 hours after seeding. The compounds to be tested were diluted to various concentrations and added to the monolayer cultures. All of the test compounds were dissolved in 10% dimethyl sulfoxide (DMSO) at concentrations that would give a final DMSO concentration of 0.1%. Control flasks contained 0.1% DMSO. Control cell replication was followed until approximately three doublings had occurred, and then all of the treated cells were counted.
For example, 1 μM VIII reduced cell number to 45% of control and 0.004 μg per milliliter vincristine caused a reduction to 27% of control. Thus, the two agents together should have reduced cell number to 12% of control if they acted additively.

[2] = test system: P388 cells; assay: Cytostatic activity on P388 cells; assay type: cell-based; settings: Mus musculus
Experimental: as §1
as §2, with “The compounds to be tested were diluted to various concentrations and added to the monolayer cultures. All of the test compounds were dissolved in 10% dimethyl sulfoxide (DMSO) at concentrations that would give a final DMSO concentration of 0.1%. Control flasks contained 0.1% DMSO.” left out

[3] = test system: ChaGo cells; assay: Cytostatic activity on ChaGo cells; assay type: cell-based, human; settings: Homo sapiens
Experimental: as §1, §2

[4] = test system: K562-4 cells; assay: Cytostatic activity on K562-4 cells; assay type: cell-based; settings: Homo sapiens; K562-4 (printed X562-4)
Experimental: as §1, §2

[5] = test system: KB cells; assay: Cytostatic activity on KB cells; assay type: cell-based; settings: Homo sapiens; KB cells, after controls doubled three times; read-out: IC50 KB
Experimental: as §1, §2
(§3) The KB cells represented cells with low alkyl cleavage activity (less than the detectable level of 0.1-0.2 units per milligram protein by our assay procedure) and the 77 cells represented cells similar to normal cells with relatively high alkyl cleavage activity (1.6 units per milligram of protein). Our value for the cleavage activity of cultured 77 cells agrees well with the value of 1.4 units per milligram of protein reported by Soodsma et al, Cancer Res. 30, 309 (1970), for freshly excised 7777 Morris hepatoma tissue. In further confirmation of our assay procedure, we obtained a value of 12.6±4.1 units per milligram of protein in excised rat liver compared to 7.3 units per milligram of protein in rat liver measured by Soodsma et al.

[6] = test system: 77 cells; assay: Cytostatic activity on 77 cells; assay type: cell-based, rat; settings: for IC50: 77 cells, after controls doubled three times; for 77/KB: ratio of IC50 values ± standard error of the quotient
Experimental: as §1, §2, §3

[7] = test system: MH1 C1 cells; assay: Cytostatic activity on MH1 C1 cells; assay type: cell-based, rat
Experimental: as §1, §2

[8] = test system: HIV-1; assay: HIV-1 plaque assay, inhibitor added 30 minutes before infection; assay type: cell-based, human immunodeficiency virus type 1 (HIV-1); settings: for Inhibition (%): HIV-1 plaque formation, Table 5
Source text: Dextran sulfate was used as a positive control. […] Plaques were counted at five days after infection.
(§4) By way of further background, in our assay HIV-1 syncytial plaques are seen as large, multicellular foci (10 to 25 nuclei/syncytium) that appear either brown and granular or clear. Since the number of HIV-1 syncytial plaques correlates with reverse transcriptase (RT) and p24 core antigen activity in the HIV-1 infected cell overlay fluids, the syncytial plaque assay can be used to quantify the amount of infectious virus. Reverse transcriptase activity was assayed according to a described procedure (B. J. Poeisz et al., Proc. Natl. Acad. Sci. (U.S.A.) […], 7415 (1980)). The activity of p24 core antigen induced by HIV-1 infection of CEM-SS cells was measured spectrophotometrically using the commercial Abbott EIA.
Compound E inhibited HIV-1 plaque count 43%, 83%, and 91% at concentrations of 0.2, 0.4, and 2.0 μM, respectively, compared to untreated controls. […] In other experiments addition of 0.2, 0.4 and 2.0 μM Compound E starting sixty minutes after HIV-1 infection inhibited HIV-1 plaque formation 28%, 59% and 97% respectively, compared to untreated controls.

[9] = test system: HIV-1 binding to target T-cells; settings: in words; cited from earlier work
[10] = test system: P388 mouse leukemia cells; assay: In vivo anti-tumor activity, P388 mouse leukemia; design: species or system mouse (BDF1 female mice); settings: for increased survival: days 1, 5, and 9
Source text: P388 mouse leukemia cells were transplanted by intraperitoneal injection of 1×10^6 cells into BDF1 female mice on day 0. Treatments were begun on day 1. Control mice received the vehicle for the test compounds. […]

[11] = test system: HL-60 cells; assay: Cytostatic activity on HL-60 cells; assay type: cell-based; settings: Homo sapiens
Experimental: as §1
as §2, with “The compounds to be tested were diluted to various concentrations and added to the monolayer cultures. All of the test compounds were dissolved in 10% dimethyl sulfoxide (DMSO) at concentrations that would give a final DMSO concentration of 0.1%. Control flasks contained 0.1% DMSO.” left out

[12] = test system: herpes simplex virus type 2 (HSV-2); assay: HSV-2 plaque formation in Vero cell monolayers; assay type: cell-based; settings: 2 μM, in words
[13] = test system: HIV-1; assay: Infectious HIV-1 multiplication (plaque forming units); assay type: cell-based, human immunodeficiency virus type 1 (HIV-1); settings: in words
Experimental: (§5) In brief, CEM-SS cells were infected with HIV-1. At various times after infection (3, 6, 8, 10, 13 days) the overlay fluids were replaced with fresh medium. Overlay fluids replaced on days 8, 10 and 13 were saved at -80° C. to measure HIV-1 plaque forming units according to our described protocol above and RT activity (described by Poiesz et al., Proc. Natl. Acad. Sci. U.S.A. 77, 7415 (1980). Results are given in Table 8 below.

[14] = test system: extracellular HSV-2; assay: Direct inactivation of extracellular HSV-2 infectivity; assay type: cell-based, herpes simplex virus type 2 (HSV-2); settings: 2 μM, in words
[15] = test system: reverse transcriptase; assay: Reverse transcriptase activity in HIV-1 infected CEM-SS cells; assay type: cell-based, human immunodeficiency virus type 1 (HIV-1); settings: in words
Experimental: as §4, §5

[16] = test system: extracellular HIV-1; assay: Direct inactivation of extracellular HIV-1 infectivity; assay type: cell-based, human immunodeficiency virus type 1 (HIV-1)
Experimental: Since ether lipid (EL) analogs are membrane interactive, see, e.g. , A. Noseda et al., Biochim. Biophys. Acta 945, 92 (1988), we determined whether Compound E could directly inactivate extracellular HIV-1 infectivity. About 350 plaque forming units of HIV-1 were mixed with antiviral concentrations (2.0 μM) of E or with control medium alone in a total volume of 100 μl. After three hours of incubation at 37° C., the virus compound and virus medium mixtures were diluted 20-fold to reduce the concentration of Compound E below a significant antiviral concentration. Aliquots (100 μl) of the diluted HIV-1 were added to CEM-SS cell monolayers to measure residual virus infectivity by plaque count. A mean of 22 plaques (N=2) were counted for Compound E-treated HIV-1 and a mean of 27 plaques (N=2) for medium-treated HIV-1.

CC[C@]1(O)C[C@H]2CN(CCc3c([nH]c4ccccc34)[C@@](C(=O)OC)(c3cc4c(cc3OC)N(C=O)[C@H]3[C@@](O)(C(=O)OC)[C@H](OC(C)=O)[C@]5(CC)C=CCN6CC[C@]43[C@@H]65)C2)C1 [vincristine, reference compound]
cell number, % of control ([1]; 0.004 μg per milliliter vincristine): 27%

CCCCCCCCCCCCCCCCCCOCC[N+](C)(C)CCO.[I-] [VIII, 2-octadecyloxy-N,N-dimethyl-N-β-hydroxyethyl-1-ethyl ammonium iodide]
IC50 [2]: 420 nM
IC50 [3]: 1000 nM
IC50 [4]: 1900 nM
IC50 [5]: 300 ± 140 nM
activity at 1 µM ([1]; Homo sapiens, 1 μM VIII, read-out: cell number, % of control): 45%
synergism with vincristine ([1]; in words): acted synergistically with vincristine against KB cells
IC50 [6]: 1800 ± 810 nM
77/KB [6]: 5.8 ± 3.8
IC50 ([7]; MH1 C1): 7700 nM
sensitivity of MH1 C1 cells relative to 77 cells ([7]; MH1 C1 vs 77 cells): two to three times less sensitive to growth inhibition than 77 cells
IC50 ([7]; Rattus norvegicus, MH1C1, MH1 C1): 6400 nM

Dextran Sulfate [reference compound]
Inhibition (%) ([8]; 1 μM): 91%
Inhibition (%) ([8]; 1 μM, listed as dextran sulfate): 92%
Inhibition (%) ([8]; 2 μM): 100%
Inhibition (%) ([8]; 10 μM): 100%
inhibition of HIV-1 binding to target T-cells [9]: a known inhibitor of HIV-1 binding to target T-cells

CCCCCCCCCCCCCCCCOCC[N+](C)(C)CCCO.[I-] [VI, 2-hexadecyloxy-N,N-dimethyl-N-gamma-hydroxypropyl-1-ethyl ammonium iodide]
IC50 [4]: 2200 ± 410 nM
increased survival ([10]; 50 mg/kg): 26%
reduced survival ([10]; 75 mg/kg on days 1 and 2): 48%
increased survival ([10]; 75 mg/kg): 48%
in vivo activity against P388 ([10]; in words): appeared to have in vivo activity against P388
survival time ([10]; one 50 mg/kg dose on day 1): did not affect survival time
lethality ([10]; single 100 mg/kg dose on day 1): killed all the mice by day 2
IC50 [5]: 230 ± 70 nM
IC50 [11]: 450 ± 11 nM
IC50 [6]: 2050 ± 910 nM
77/KB [6]: 8.9 ± 4.79

CCCCCCCCCCCCCCCCSCC(C[N+](C)(C)CCO)OC.[I-] (racemic) [Compound 12, (±)-3-hexadecylthio-2-methoxy-N,N-dimethyl-N-β-hydroxyethyl-1-propyl ammonium iodide]
inhibition of HSV-2 plaque formation [12]: neither inhibits herpes simplex virus type 2 (HSV-2) plaque formation in Vero cell monolayers
infectious virus production ([13]; 13 days): infectious virus production is still inhibited
infectious virus production ([13]; between 8 and 10 days): markedly inhibit infectious virus production
inactivation of extracellular HSV-2 infectivity [14]: nor directly inactivates extracellular HSV-2 infectivity
reverse transcriptase activity ([15]; 13 days): reverse transcriptase activity increases
reverse transcriptase activity ([15]; between 8 and 10 days): markedly inhibit infectious virus production and reverse transcriptase activity in a dose-dependent manner
inactivation of extracellular HIV-1 infectivity ([16]; 2.0 μM, in words): does not inactivate extracellular HIV-1 infectivity
mean residual plaques ([16]; HIV-1 treated 2.0 μM, 3 hours, 37° C., diluted 20-fold, N=2 (medium: 27 plaques)): 22 plaques
selectivity against HIV-1 plaque formation ([8]; vs HSV-2, in words): selective inhibitory activity against HIV-1 plaque formation
